# Assay results from ChEMBL document CHEMBL5465560, “Selectivity Literature for EUbOPEN Chemogenomic Library” (2024).
# What was measured:
# [1] = biological target: Platelet-derived growth factor receptor alpha (Homo sapiens, UniProt P16234); experiment: Selectivity interaction (KinomeScan (DiscoverX)) EUB0000092b PDGFRA; details: at 10 µM
# [2] = biological target: STE20-like serine/threonine-protein kinase (Homo sapiens, UniProt Q9H2G2); experiment: Selectivity interaction (KinomeScan (DiscoverX)) EUB0000655a SLK; details: at 10 µM
# [3] = biological target: T1, Homeodomain-interacting protein kinase 4 (Homo sapiens) (UniProt Q8NE63); experiment: Selectivity interaction (KinomeScan (DiscoverX)) EUB0000655a HIPK4; details: at 10 µM
# T1 sequence (whole entry): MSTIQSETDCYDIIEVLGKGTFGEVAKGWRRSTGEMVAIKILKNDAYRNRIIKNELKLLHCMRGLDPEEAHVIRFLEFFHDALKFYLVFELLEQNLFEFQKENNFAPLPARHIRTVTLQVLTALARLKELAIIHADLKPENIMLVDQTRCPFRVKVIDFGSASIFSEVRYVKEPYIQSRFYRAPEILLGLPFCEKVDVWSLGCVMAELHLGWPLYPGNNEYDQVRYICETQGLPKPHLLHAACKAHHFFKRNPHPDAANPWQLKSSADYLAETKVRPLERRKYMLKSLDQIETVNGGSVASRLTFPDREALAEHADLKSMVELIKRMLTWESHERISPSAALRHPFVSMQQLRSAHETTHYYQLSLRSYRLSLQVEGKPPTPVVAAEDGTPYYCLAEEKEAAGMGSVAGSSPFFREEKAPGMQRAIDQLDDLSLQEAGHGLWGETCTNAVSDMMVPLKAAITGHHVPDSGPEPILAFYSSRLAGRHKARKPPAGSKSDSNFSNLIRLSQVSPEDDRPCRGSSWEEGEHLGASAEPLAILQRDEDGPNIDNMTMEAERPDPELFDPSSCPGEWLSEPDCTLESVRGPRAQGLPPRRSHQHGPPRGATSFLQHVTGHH
# [4] = test system: Mast/stem cell growth factor receptor Kit (Homo sapiens), P10721 [A829P]; experiment: (§1) Selectivity interaction (ProQinase) EUB0000171b KIT
# [5] = test system: Mast/stem cell growth factor receptor Kit (Homo sapiens), P10721 [D816V]; experiment: as §1
# [6] = test system: Mast/stem cell growth factor receptor Kit (Homo sapiens), P10721 [V560G]; experiment: as §1
# [7] = test system: Mast/stem cell growth factor receptor Kit (Homo sapiens), P10721 [D816H]; experiment: as §1
# [8] = test system: Mast/stem cell growth factor receptor Kit (Homo sapiens), P10721 [V559D]; experiment: as §1
# [9] = test system: Mast/stem cell growth factor receptor Kit (Homo sapiens), P10721 [V559D,V654A]; experiment: as §1
# [10] = test system: Mast/stem cell growth factor receptor Kit (Homo sapiens), P10721 [T670I]; experiment: as §1
# [11] = test system: Mast/stem cell growth factor receptor Kit (Homo sapiens), P10721 [V654A]; experiment: as §1
# [12] = biological target: Mast/stem cell growth factor receptor Kit (Homo sapiens, UniProt P10721); experiment: as §1
# [13] = test system: Mast/stem cell growth factor receptor Kit (Homo sapiens), P10721 [V559D,T670I]; experiment: as §1
# [14] = biological target: N6-adenosine-methyltransferase catalytic subunit (Homo sapiens) (UniProt Q86U44); experiment: Selectivity interaction (Transferase panel (protein, RNA, and DNA methyltransferases. and EP300 (acetyltransferase))) EUB0000270b METTL3
# [15] = biological target: Serine/threonine-protein kinase pim-1 (Homo sapiens, UniProt P11309); details: at 10 µM
# [16] = biological target: Ephrin type-A receptor 4 (Homo sapiens, UniProt P54764); details: at 10 µM
# [17] = biological target: cAMP-dependent protein kinase catalytic subunit alpha (Homo sapiens, UniProt P17612); experiment: Selectivity interaction (Ambit KINOMEscan and KiNATiv profiling in Jurkat cells) EUB0000090b PRKACA; type: cell-based; details: at 1 µM
# [18] = biological target: Serine/threonine-protein kinase WNK3 (Homo sapiens) (UniProt Q9BYP7); experiment: Selectivity interaction (KinomeScan (DiscoverX)) EUB0001619a WNK3; details: at 1 µM
# [19] = biological target: T2, Serine/threonine-protein kinase DCLK2 (Homo sapiens) (UniProt Q8N568); experiment: Selectivity interaction (KinomeScan (DiscoverX)) EUB0001619a DCLK2; details: at 1 µM
# T2 sequence (whole entry): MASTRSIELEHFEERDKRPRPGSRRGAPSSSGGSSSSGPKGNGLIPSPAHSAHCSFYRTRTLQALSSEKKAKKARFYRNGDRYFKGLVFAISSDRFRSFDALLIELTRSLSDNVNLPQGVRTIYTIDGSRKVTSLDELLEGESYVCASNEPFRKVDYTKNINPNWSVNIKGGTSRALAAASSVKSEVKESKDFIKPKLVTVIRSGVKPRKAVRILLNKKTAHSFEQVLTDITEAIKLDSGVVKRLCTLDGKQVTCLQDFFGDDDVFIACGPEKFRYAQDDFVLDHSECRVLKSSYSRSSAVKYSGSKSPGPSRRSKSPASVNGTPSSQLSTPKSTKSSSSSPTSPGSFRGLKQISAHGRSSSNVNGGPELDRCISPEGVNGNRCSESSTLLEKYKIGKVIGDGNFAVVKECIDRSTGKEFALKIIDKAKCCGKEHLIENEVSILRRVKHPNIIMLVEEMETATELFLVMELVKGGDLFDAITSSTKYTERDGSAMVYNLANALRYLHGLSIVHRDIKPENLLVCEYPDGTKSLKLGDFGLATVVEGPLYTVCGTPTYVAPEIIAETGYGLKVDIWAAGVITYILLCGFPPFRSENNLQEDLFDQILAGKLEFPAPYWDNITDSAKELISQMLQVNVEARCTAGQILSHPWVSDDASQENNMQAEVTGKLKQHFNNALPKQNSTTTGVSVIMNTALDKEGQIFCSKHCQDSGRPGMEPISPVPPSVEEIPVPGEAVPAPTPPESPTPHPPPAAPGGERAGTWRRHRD
# N6-adenosine-methyltransferase catalytic subunit (Homo sapiens), sequence (Q86U44 whole entry): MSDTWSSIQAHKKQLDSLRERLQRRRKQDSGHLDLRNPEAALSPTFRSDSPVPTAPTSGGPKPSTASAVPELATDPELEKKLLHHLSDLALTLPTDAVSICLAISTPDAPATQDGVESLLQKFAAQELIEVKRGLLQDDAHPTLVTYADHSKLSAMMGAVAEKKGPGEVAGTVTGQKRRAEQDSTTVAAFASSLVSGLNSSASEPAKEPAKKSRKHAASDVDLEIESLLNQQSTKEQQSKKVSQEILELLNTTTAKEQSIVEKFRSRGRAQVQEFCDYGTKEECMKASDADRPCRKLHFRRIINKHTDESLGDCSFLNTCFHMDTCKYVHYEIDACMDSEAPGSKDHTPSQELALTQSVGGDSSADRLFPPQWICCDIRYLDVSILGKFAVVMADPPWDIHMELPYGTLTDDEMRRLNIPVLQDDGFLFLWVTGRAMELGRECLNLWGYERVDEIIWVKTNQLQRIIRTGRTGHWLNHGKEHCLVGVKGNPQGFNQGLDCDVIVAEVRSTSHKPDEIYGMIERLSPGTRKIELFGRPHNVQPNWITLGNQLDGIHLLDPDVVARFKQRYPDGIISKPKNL
# Mast/stem cell growth factor receptor Kit (Homo sapiens), P10721 [V559D], sequence (P10721 whole entry V559D): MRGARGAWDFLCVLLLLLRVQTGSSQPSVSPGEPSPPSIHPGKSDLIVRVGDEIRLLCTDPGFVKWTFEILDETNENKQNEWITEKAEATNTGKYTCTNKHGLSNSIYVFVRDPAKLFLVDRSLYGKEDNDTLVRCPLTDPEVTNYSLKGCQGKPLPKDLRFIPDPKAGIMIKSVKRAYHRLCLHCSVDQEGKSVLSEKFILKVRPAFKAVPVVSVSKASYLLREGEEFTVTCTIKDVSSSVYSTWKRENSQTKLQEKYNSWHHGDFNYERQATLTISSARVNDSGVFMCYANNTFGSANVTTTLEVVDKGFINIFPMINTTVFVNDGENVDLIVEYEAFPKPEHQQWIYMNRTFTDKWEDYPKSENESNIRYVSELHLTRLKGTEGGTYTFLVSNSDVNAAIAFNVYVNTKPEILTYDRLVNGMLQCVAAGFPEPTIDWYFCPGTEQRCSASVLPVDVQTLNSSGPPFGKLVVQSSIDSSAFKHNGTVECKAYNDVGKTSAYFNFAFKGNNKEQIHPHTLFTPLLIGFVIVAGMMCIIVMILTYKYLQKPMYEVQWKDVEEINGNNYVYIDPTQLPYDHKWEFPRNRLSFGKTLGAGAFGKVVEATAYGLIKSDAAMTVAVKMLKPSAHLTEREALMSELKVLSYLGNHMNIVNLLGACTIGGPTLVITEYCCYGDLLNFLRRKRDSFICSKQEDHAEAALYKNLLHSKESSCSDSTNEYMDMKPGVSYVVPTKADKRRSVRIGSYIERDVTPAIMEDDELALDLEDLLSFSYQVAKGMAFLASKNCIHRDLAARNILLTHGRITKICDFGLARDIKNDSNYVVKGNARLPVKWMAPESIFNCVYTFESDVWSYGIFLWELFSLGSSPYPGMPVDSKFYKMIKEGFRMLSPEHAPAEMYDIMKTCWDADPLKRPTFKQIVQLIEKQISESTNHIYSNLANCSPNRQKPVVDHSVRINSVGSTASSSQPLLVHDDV
# Mast/stem cell growth factor receptor Kit (Homo sapiens), P10721 [D816H], sequence (P10721 whole entry D816H): as the sequence (P10721 whole entry V559D) above, with D559V, D816H counted along it
# Mast/stem cell growth factor receptor Kit (Homo sapiens), P10721 [V559D,T670I], sequence (P10721 whole entry V559D/T670I): as the sequence (P10721 whole entry V559D) above, with T670I counted along it
# Mast/stem cell growth factor receptor Kit (Homo sapiens), P10721 [A829P], sequence (P10721 whole entry A829P): as the sequence (P10721 whole entry V559D) above, with D559V, A829P counted along it
# Serine/threonine-protein kinase pim-1, sequence (P11309 whole entry, looked up): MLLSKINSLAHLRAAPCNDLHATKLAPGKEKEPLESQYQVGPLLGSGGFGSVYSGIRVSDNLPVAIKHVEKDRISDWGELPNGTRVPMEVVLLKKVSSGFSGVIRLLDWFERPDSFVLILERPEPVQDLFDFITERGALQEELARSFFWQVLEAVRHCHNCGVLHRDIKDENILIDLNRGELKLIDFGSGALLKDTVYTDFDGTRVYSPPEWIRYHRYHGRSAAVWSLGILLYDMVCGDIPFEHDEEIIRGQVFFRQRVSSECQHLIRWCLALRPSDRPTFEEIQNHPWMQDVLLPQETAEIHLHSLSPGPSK
smiles,measurement,setting,value
CCC(=O)N1CCN(c2ccc(-n3c(=O)ccc4cnc5ccc(-c6cnc7ccccc7c6)cc5c43)cc2C(F)(F)F)CC1,% of control,[1],63%
CN(C)CCOc1ccc(-c2nc(-c3ccncc3)c(-c3ccc4c(c3)CC/C4=N\O)[nH]2)cc1,% of control,[2],1.3%
same,% of control,[3],18%
C=CC(=O)Nc1cccc(C(=O)Nc2ccc(Nc3cc(-c4[nH]c(SC)nc4C)ccn3)cc2)c1,% of control,[4]; at 1 µM,68%
same,% of control,[4]; at 5 µM,75%
same,% of control,[5]; at 1 µM,87%
same,% of control,[5]; at 5 µM,55%
same,% of control,[6]; at 1 µM,95%
same,% of control,[6]; at 5 µM,67%
same,% of control,[7]; at 1 µM,91%
same,% of control,[7]; at 5 µM,66%
same,% of control,[8]; at 1 µM,102%
same,% of control,[8]; at 5 µM,94%
same,% of control,[9]; at 1 µM,94%
same,% of control,[9]; at 5 µM,85%
same,% of control,[10]; at 1 µM,107%
same,% of control,[10]; at 5 µM,98%
same,% of control,[11]; at 1 µM,103%
same,% of control,[11]; at 5 µM,80%
same,% of control,[12]; at 1 µM,98%
same,% of control,[12]; at 5 µM,101%
same,% of control,[13]; at 1 µM,96%
same,% of control,[13]; at 5 µM,77%
Cc1cc(CN)cc(C)c1-c1ncn(C)c1-c1cncn1C,% activity,[14]; at 1 µM,> 90%
same,% activity,[14]; at 10 µM,> 80%
COCC(=O)NC/C=C/c1ccc2ncnc(Nc3ccc(Oc4ccc(C)nc4)c(C)c3)c2c1 [CP-724714],% of control,[15],100%
same,% of control,[16],98%
CN(C)C/C=C/C(=O)Nc1ccc(C(=O)N2CCCC(Nc3ncc(Cl)c(-c4c[nH]c5ccccc45)n3)C2)cc1 (stereo not given),% of control,[17],100%
N#Cc1cccc(-c2c[nH]c3ncnc(N4CCOCC4)c23)c1,% of control,[18],100%
same,% of control,[19],100%
